Source: paper PMC11822212, “High-throughput screening identifies Aurora kinase B as a critical therapeutic target for Merkel cell carcinoma” (Nature Communications, 2025)
Read-outs that look alike come from different tables or passages of the source.

Experiments:
Test in all cases: qHTS cell viability (CellTiter-Glo, 72 h; primary and follow-up small molecule screen)
Assay type in all cases: cell-based, human
WAGA cells (VP-MCC) = test system: WAGA cells (VP-MCC)
MKL-1 cells (VP-MCC) = test system: MKL-1 cells (VP-MCC)
MCC26 cells (VN-MCC) = test system: MCC26 cells (VN-MCC)
MKL-2 cells (VP-MCC) = test system: MKL-2 cells (VP-MCC)
UISO cells (VN-MCC) = test system: UISO cells (VN-MCC)
MCC13 cells (VN-MCC) = test system: MCC13 cells (VN-MCC)
[1] = follow-up screen, WAGA, replicate 1
[2] = follow-up screen, WAGA, replicate 2
[3] = follow-up screen, WAGA, replicate 3
[4] = follow-up screen, MKL-1, replicate 1
[5] = follow-up screen, MKL-1, replicate 2
[6] = follow-up screen, MKL-1, replicate 3
[7] = follow-up screen, MCC26, replicate 1
[8] = follow-up screen, MCC26, replicate 2
[9] = follow-up screen, MCC26, replicate 3
[10] = follow-up screen, MKL-2, replicate 1
[11] = follow-up screen, MKL-2, replicate 2
[12] = follow-up screen, MKL-2, replicate 3
[13] = follow-up screen, UISO, replicate 1
[14] = follow-up screen, UISO, replicate 2
[15] = follow-up screen, UISO, replicate 3
[16] = follow-up screen, MCC13, replicate 1
[17] = follow-up screen, MCC13, replicate 2
[18] = follow-up screen, MCC13, replicate 3

SMILES | Area under the dose-response curve (AUC) WAGA Replicate 1 (WAGA cells (VP-MCC)) | Area under the dose-response curve (AUC) WAGA Replicate 2 (WAGA cells (VP-MCC)) | Area under the dose-response curve (AUC) WAGA Replicate 1 (WAGA cells (VP-MCC); [1]) | Area under the dose-response curve (AUC) WAGA Replicate 2 (WAGA cells (VP-MCC); [2]) | Area under the dose-response curve (AUC) WAGA Replicate 3 (WAGA cells (VP-MCC); [3]) | Area under the dose-response curve (AUC) MKL-1 Replicate 1 (MKL-1 cells (VP-MCC); [4]) | Area under the dose-response curve (AUC) MKL-1 Replicate 2 (MKL-1 cells (VP-MCC); [5]) | Area under the dose-response curve (AUC) MKL-1 Replicate 3 (MKL-1 cells (VP-MCC); [6]) | Area under the dose-response curve (AUC) MCC26 Replicate 1 (MCC26 cells (VN-MCC); [7]) | Area under the dose-response curve (AUC) MCC26 Replicate 2 (MCC26 cells (VN-MCC); [8]) | Area under the dose-response curve (AUC) MCC26 Replicate 3 (MCC26 cells (VN-MCC); [9]) | Area under the dose-response curve (AUC) MKL-2 Replicate 1 (MKL-2 cells (VP-MCC); [10]) | Area under the dose-response curve (AUC) MKL-2 Replicate 2 (MKL-2 cells (VP-MCC); [11]) | Area under the dose-response curve (AUC) MKL-2 Replicate 3 (MKL-2 cells (VP-MCC); [12]) | Area under the dose-response curve (AUC) UISO Replicate 1 (UISO cells (VN-MCC); [13]) | Area under the dose-response curve (AUC) UISO Replicate 2 (UISO cells (VN-MCC); [14]) | Area under the dose-response curve (AUC) UISO Replicate 3 (UISO cells (VN-MCC); [15]) | Area under the dose-response curve (AUC) MCC13 Replicate 1 (MCC13 cells (VN-MCC); [16]) | Area under the dose-response curve (AUC) MCC13 Replicate 2 (MCC13 cells (VN-MCC); [17]) | Area under the dose-response curve (AUC) MCC13 Replicate 3 (MCC13 cells (VN-MCC); [18]) | further results
CC[n+]1c(-c2ccccc2)c2cc(N)ccc2c2ccc(N)cc21 [Ethidium bromide] | 318.2 | 323.3 |  |  |  |  |  |  |  |  |  |  |  |  |  |  |  |  |  |  | Area under the dose-response curve (AUC) WAGA Replicate 3 (WAGA cells (VP-MCC)): 317.1; Area under the dose-response curve (AUC) MKL-1 Replicate 1 (MKL-1 cells (VP-MCC)): 280.1; Area under the dose-response curve (AUC) MKL-1 Replicate 2 (MKL-1 cells (VP-MCC)): 244.2; Area under the dose-response curve (AUC) MKL-1 Replicate 3 (MKL-1 cells (VP-MCC)): 288.2; Area under the dose-response curve (AUC) MCC26 Replicate 1 (MCC26 cells (VN-MCC)): 428.7; Area under the dose-response curve (AUC) MCC26 Replicate 2 (MCC26 cells (VN-MCC)): 414.7; Area under the dose-response curve (AUC) MCC26 Replicate 3 (MCC26 cells (VN-MCC)): 412.7; Area under the dose-response curve (AUC) MKL-2 Replicate 1 (MKL-2 cells (VP-MCC)): 300.3; Area under the dose-response curve (AUC) MKL-2 Replicate 2 (MKL-2 cells (VP-MCC)): 311.5; Area under the dose-response curve (AUC) MKL-2 Replicate 3 (MKL-2 cells (VP-MCC)): 284.3; Area under the dose-response curve (AUC) UISO Replicate 1 (UISO cells (VN-MCC)): 333.5; Area under the dose-response curve (AUC) UISO Replicate 2 (UISO cells (VN-MCC)): 324.2; Area under the dose-response curve (AUC) UISO Replicate 3 (UISO cells (VN-MCC)): 301.4; Area under the dose-response curve (AUC) MCC13 Replicate 1 (MCC13 cells (VN-MCC)): 459.3; Area under the dose-response curve (AUC) MCC13 Replicate 2 (MCC13 cells (VN-MCC)): 449.7; Area under the dose-response curve (AUC) MCC13 Replicate 3 (MCC13 cells (VN-MCC)): 444.5
Nc1ccc(C(=O)Nc2ccccc2N)cc1 [Dianiline] |  |  | 404.2 | 318.5 | 364.2 | 338.4 | 393.7 | 398.6 | 384.0 | 438.4 | 461.6 | 329.9 | 373.4 | 408.4 | 377.0 | 432.3 | 415.8 | 470.9 | 476.2 | 459.3 | 
Cc1ccc(NC(=O)c2cccc(N(C)C)c2)cc1NC(=O)c1ccc(O)cc1 [ZM-336372] |  |  | 500.4 | 604.1 | 537.5 | 480.0 | 490.6 | 522.7 | 438.1 | 425.8 | 478.4 | 501.8 | 535.1 | 493.2 | 448.6 | 464.6 | 456.5 | 498.2 | 493.5 | 506.1 | 
COc1ccc2c(c[n+](C)c3c4cc5c(cc4ccc23)OCO5)c1OC [Chelerythrine chloride] |  |  | 387.5 | 415.9 | 372.6 | 325.9 | 295.9 | 331.6 | 384.2 | 379.8 | 390.1 | 317.6 | 350.5 | 338.8 | 417.2 | 419.6 | 390.8 | 404.1 | 410.9 | 433.8 | 
[O-][n+]1ccccc1SSc1cccc[n+]1[O-] [Dipyrithione] |  |  | 319.9 | 346.1 | 356.9 | 254.8 | 246.8 | 245.5 | 305.7 | 302.8 | 280.4 | 287.6 | 277.7 | 248.6 | 241.8 | 283.0 | 225.1 | 333.5 | 320.8 | 288.3 | 
CC(=O)C1=C(O)[C@@H]2[C@H]3c4c[nH]c5cccc(c45)C[C@H]3C(C)(C)N2C1=O [Cyclopiazonic acid] | 561.2 | 524.5 |  |  |  |  |  |  |  |  |  |  |  |  |  |  |  |  |  |  | Area under the dose-response curve (AUC) WAGA Replicate 3 (WAGA cells (VP-MCC)): 501.8; Area under the dose-response curve (AUC) MKL-1 Replicate 1 (MKL-1 cells (VP-MCC)): 549.5; Area under the dose-response curve (AUC) MKL-1 Replicate 2 (MKL-1 cells (VP-MCC)): 470.8; Area under the dose-response curve (AUC) MKL-1 Replicate 3 (MKL-1 cells (VP-MCC)): 482.5; Area under the dose-response curve (AUC) MCC26 Replicate 1 (MCC26 cells (VN-MCC)): 467.3; Area under the dose-response curve (AUC) MCC26 Replicate 2 (MCC26 cells (VN-MCC)): 434.2; Area under the dose-response curve (AUC) MCC26 Replicate 3 (MCC26 cells (VN-MCC)): 474.3; Area under the dose-response curve (AUC) MKL-2 Replicate 1 (MKL-2 cells (VP-MCC)): 490.7; Area under the dose-response curve (AUC) MKL-2 Replicate 2 (MKL-2 cells (VP-MCC)): 497.0; Area under the dose-response curve (AUC) MKL-2 Replicate 3 (MKL-2 cells (VP-MCC)): 473.0; Area under the dose-response curve (AUC) UISO Replicate 1 (UISO cells (VN-MCC)): 472.8; Area under the dose-response curve (AUC) UISO Replicate 2 (UISO cells (VN-MCC)): 458.0; Area under the dose-response curve (AUC) UISO Replicate 3 (UISO cells (VN-MCC)): 445.8; Area under the dose-response curve (AUC) MCC13 Replicate 1 (MCC13 cells (VN-MCC)): 495.4; Area under the dose-response curve (AUC) MCC13 Replicate 2 (MCC13 cells (VN-MCC)): 488.6; Area under the dose-response curve (AUC) MCC13 Replicate 3 (MCC13 cells (VN-MCC)): 449.6
Cc1cc(Nc2ncc3c(n2)N(C)C(=O)N(c2cc(NC(=O)c4cccc(C(F)(F)F)c4)ccc2C)C3)n(C)n1 [Pluripotin] |  |  | 419.3 | 439.3 | 440.2 | 453.5 | 477.1 | 466.2 | 306.5 | 289.3 | 278.9 | 435.4 | 458.3 | 471.4 | 341.8 | 376.4 | 360.3 | 368.1 | 352.7 | 330.6 | 
CCCCCCCCC(=O)NCc1ccc(O)c(OC)c1 [Nonivamide] | 544.9 | 499.1 |  |  |  |  |  |  |  |  |  |  |  |  |  |  |  |  |  |  | Area under the dose-response curve (AUC) WAGA Replicate 3 (WAGA cells (VP-MCC)): 488.2; Area under the dose-response curve (AUC) MKL-1 Replicate 1 (MKL-1 cells (VP-MCC)): 491.5; Area under the dose-response curve (AUC) MKL-1 Replicate 2 (MKL-1 cells (VP-MCC)): 481.8; Area under the dose-response curve (AUC) MKL-1 Replicate 3 (MKL-1 cells (VP-MCC)): 491.3; Area under the dose-response curve (AUC) MCC26 Replicate 1 (MCC26 cells (VN-MCC)): 453.4; Area under the dose-response curve (AUC) MCC26 Replicate 2 (MCC26 cells (VN-MCC)): 445.4; Area under the dose-response curve (AUC) MCC26 Replicate 3 (MCC26 cells (VN-MCC)): 466.4; Area under the dose-response curve (AUC) MKL-2 Replicate 1 (MKL-2 cells (VP-MCC)): 520.2; Area under the dose-response curve (AUC) MKL-2 Replicate 2 (MKL-2 cells (VP-MCC)): 501.6; Area under the dose-response curve (AUC) MKL-2 Replicate 3 (MKL-2 cells (VP-MCC)): 494.8; Area under the dose-response curve (AUC) UISO Replicate 1 (UISO cells (VN-MCC)): 479.2; Area under the dose-response curve (AUC) UISO Replicate 2 (UISO cells (VN-MCC)): 501.4; Area under the dose-response curve (AUC) UISO Replicate 3 (UISO cells (VN-MCC)): 453.6; Area under the dose-response curve (AUC) MCC13 Replicate 1 (MCC13 cells (VN-MCC)): 513.1; Area under the dose-response curve (AUC) MCC13 Replicate 2 (MCC13 cells (VN-MCC)): 478.1; Area under the dose-response curve (AUC) MCC13 Replicate 3 (MCC13 cells (VN-MCC)): 523.7
C[n+]1cc2c3c(ccc2c2ccc4cc5c(cc4c21)OCO5)OCO3 [Sanguinarine] | 371.2 | 384.9 |  |  |  |  |  |  |  |  |  |  |  |  |  |  |  |  |  |  | Area under the dose-response curve (AUC) WAGA Replicate 3 (WAGA cells (VP-MCC)): 367.1; Area under the dose-response curve (AUC) MKL-1 Replicate 1 (MKL-1 cells (VP-MCC)): 358.8; Area under the dose-response curve (AUC) MKL-1 Replicate 2 (MKL-1 cells (VP-MCC)): 334.5; Area under the dose-response curve (AUC) MKL-1 Replicate 3 (MKL-1 cells (VP-MCC)): 363.7; Area under the dose-response curve (AUC) MCC26 Replicate 1 (MCC26 cells (VN-MCC)): 339.9; Area under the dose-response curve (AUC) MCC26 Replicate 2 (MCC26 cells (VN-MCC)): 348.4; Area under the dose-response curve (AUC) MCC26 Replicate 3 (MCC26 cells (VN-MCC)): 364.0; Area under the dose-response curve (AUC) MKL-2 Replicate 1 (MKL-2 cells (VP-MCC)): 328.8; Area under the dose-response curve (AUC) MKL-2 Replicate 2 (MKL-2 cells (VP-MCC)): 346.3; Area under the dose-response curve (AUC) MKL-2 Replicate 3 (MKL-2 cells (VP-MCC)): 358.6; Area under the dose-response curve (AUC) UISO Replicate 1 (UISO cells (VN-MCC)): 370.0; Area under the dose-response curve (AUC) UISO Replicate 2 (UISO cells (VN-MCC)): 363.9; Area under the dose-response curve (AUC) UISO Replicate 3 (UISO cells (VN-MCC)): 365.4; Area under the dose-response curve (AUC) MCC13 Replicate 1 (MCC13 cells (VN-MCC)): 361.4; Area under the dose-response curve (AUC) MCC13 Replicate 2 (MCC13 cells (VN-MCC)): 359.5; Area under the dose-response curve (AUC) MCC13 Replicate 3 (MCC13 cells (VN-MCC)): 378.6
